# Source: patent US7319098B2, “1,3-dioxoisoindole derivatives having selective antagonism of T-type calcium channel” (Korea Institute of Science and Technology, priority 2006, dated 2008)
# Biological target: T1, α1G T-type Ca2+ channels (Homo sapiens, UniProt O43497)
# T1 construct: expressed in transfected cells; host or cells: HEK293 cells stably expressing α1G and Kir2.1
# Experiment: Screening of activity against T-type calcium channel with FDSS6000 (fluorescence, KCl-induced [Ca2+]i increase)
# Format: cell-based
# Details: 10 μM; HEK293 cells expressing α1G and Kir2.1; NA: Not Active; read-out: Inhibitory effect (%) of T-type calcium channel, Inhibition (%)
# In short: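 HEK293 cells stably expressing α1G plus Kir2.1 were loaded with 5 μM fluo3/AM for 60 min at room temperature in HEPES buffer pH 7.4. In buffer with 10 mM CaCl2, cells were pretreated with compound, then depolarized with 70 mM KCl. The rise in [Ca2+]i was measured by fluorescence […].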
# T1 sequence (O43497 whole entry): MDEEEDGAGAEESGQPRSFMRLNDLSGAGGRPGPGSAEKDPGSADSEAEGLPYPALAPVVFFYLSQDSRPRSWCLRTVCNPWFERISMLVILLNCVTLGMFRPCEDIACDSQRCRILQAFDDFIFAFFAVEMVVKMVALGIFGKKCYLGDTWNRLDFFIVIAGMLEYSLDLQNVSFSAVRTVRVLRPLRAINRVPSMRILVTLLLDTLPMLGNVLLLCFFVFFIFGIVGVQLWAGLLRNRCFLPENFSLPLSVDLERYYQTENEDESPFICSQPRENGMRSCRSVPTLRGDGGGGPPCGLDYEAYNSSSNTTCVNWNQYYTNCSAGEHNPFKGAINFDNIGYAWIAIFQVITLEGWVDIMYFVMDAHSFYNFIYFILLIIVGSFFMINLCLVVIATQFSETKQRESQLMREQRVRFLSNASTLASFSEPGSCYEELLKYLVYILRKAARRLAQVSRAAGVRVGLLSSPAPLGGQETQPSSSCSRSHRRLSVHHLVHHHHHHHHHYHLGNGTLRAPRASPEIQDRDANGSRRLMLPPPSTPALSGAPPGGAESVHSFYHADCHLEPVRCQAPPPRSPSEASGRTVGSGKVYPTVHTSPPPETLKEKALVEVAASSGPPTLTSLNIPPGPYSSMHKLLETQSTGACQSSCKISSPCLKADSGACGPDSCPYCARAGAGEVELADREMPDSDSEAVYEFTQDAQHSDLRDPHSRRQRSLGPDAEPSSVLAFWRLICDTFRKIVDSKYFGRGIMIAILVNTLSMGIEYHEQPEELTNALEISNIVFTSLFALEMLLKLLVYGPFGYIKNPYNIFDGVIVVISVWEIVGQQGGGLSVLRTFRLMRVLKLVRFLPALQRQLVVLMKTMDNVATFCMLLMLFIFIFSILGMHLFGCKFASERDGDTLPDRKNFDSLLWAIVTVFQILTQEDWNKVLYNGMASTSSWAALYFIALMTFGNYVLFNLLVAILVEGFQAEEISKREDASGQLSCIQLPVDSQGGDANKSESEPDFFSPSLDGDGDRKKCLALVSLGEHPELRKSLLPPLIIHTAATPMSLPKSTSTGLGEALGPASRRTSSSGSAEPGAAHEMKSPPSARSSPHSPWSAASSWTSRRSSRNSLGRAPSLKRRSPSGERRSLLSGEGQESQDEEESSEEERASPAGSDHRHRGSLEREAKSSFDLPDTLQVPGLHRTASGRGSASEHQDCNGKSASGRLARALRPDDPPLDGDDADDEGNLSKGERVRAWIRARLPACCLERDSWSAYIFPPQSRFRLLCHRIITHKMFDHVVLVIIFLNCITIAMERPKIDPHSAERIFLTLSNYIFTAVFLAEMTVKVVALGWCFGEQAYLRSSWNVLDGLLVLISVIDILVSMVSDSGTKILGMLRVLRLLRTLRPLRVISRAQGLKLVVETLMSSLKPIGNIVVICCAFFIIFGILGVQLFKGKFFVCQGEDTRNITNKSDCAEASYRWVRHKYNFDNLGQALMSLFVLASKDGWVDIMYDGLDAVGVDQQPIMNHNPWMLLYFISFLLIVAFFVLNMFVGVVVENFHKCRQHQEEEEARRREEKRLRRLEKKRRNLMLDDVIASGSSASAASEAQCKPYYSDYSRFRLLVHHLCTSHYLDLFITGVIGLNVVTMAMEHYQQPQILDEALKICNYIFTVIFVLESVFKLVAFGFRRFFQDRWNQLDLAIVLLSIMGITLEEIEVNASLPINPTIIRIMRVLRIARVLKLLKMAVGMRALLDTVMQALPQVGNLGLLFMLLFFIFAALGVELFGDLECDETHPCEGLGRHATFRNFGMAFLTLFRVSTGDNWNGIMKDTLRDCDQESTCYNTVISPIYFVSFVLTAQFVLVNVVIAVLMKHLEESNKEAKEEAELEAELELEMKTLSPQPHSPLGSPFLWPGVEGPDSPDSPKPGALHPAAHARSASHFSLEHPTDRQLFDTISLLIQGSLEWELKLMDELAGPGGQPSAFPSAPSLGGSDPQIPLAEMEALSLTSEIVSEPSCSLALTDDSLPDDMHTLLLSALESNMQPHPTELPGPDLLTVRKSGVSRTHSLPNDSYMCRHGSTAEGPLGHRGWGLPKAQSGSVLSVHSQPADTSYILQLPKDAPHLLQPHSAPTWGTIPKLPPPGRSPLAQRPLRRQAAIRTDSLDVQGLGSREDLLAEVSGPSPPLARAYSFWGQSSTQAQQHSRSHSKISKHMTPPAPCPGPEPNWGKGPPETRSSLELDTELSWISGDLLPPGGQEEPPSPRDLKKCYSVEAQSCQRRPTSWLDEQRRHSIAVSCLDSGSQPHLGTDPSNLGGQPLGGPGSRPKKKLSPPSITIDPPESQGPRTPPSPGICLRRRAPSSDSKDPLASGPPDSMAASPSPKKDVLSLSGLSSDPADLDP
row,inhibition at 10 µM [%],SMILES
1,1.3,"Cc1cccc(N2C(=O)c3ccc(C(=O)NCCN4CCOCC4)cc3C2=O)c1 [Compound 37, 4-{2-[(1,3-dioxo-2-m-tolyl-2,3-dihydro-1H-isoindol-5-carbonyl)-amino]-ethyl}-4-morpholinium chloride]"
2,10,"Cc1cccc(N2C(=O)c3ccc(C(=O)NCCCN4CCCCC4C)cc3C2=O)c1 (stereo not shown) [Compound 34, 1-{3-[(1,3-dioxo-2-m-tolyl-2,3-dihydro-1H-isoindol-5-carbonyl)-amino]-propyl}-2-methyl-piperidinium chloride]"
3,27.8,"O=C(NCCCN1CCOCC1)c1ccc2c(c1)C(=O)N(Cc1cccc(Cl)c1)C2=O [Compound 86, 4-(3-{[2-(3-chloro-benzyl)-1,3-dioxo-2,3-dihydro-1H-isoindol-5-carbonyl]-amino}-propyl)-4-morpholinium chloride]"

# The remaining lines, values behind:
row,SMILES,inhibition at 10 µM [%]
1,"N#Cc1ccc(CN2C(=O)c3ccc(C(=O)NCCN4CCCC4)cc3C2=O)cc1 [Compound 131, 1-(2-{[2-(4-cyano-benzyl)-1,3-dioxo-2,3-dihydro-1H-isoindol-5-carbonyl]-amino}-ethyl)-pyrrolidinium chloride]",0.6
2,"O=C(NCCCN1CCCC1)c1ccc2c(c1)C(=O)N(Cc1ccccc1Cl)C2=O [Compound 78, 1-(3-{[2-(2-chloro-benzyl)-1,3-dioxo-2,3-dihydro-1H-isoindol-5-carbonyl]-amino}-propyl)-pyrrolidinium chloride]",25.4

# Same assay, conditions: 100 μM; HEK293 cells expressing α1G and Kir2.1; read-out: Inhibitory effect (%) of T-type calcium channel, Inhibition (%)
row,inhibition at 100 µM [%],SMILES
1,38.5,"O=C(NCCCN1CCOCC1)c1ccc2c(c1)C(=O)N(Cc1ccccc1)C2=O [Compound 54, 4-{3-[(2-benzyl-1,3-dioxo-2,3-dihydro-1H-isoindol-5-carbonyl)-amino]-propyl}-4-morpholinium chloride]"
2,45.7,"O=C(NCCN1CCCCC1)c1ccc2c(c1)C(=O)N(c1ccc(F)cc1)C2=O [Compound 19, 1-(2-{[2-(4-fluoro-phenyl)-1,3-dioxo-2,3-dihydro-1H-isoindol-5-carbonyl]-amino}-ethyl)-piperidinium chloride]"
3,51.1,"COc1ccccc1CN1C(=O)c2ccc(C(=O)NCCN3CCOCC3)cc2C1=O [Compound 115, 4-(2-{[2-(2-methoxy-benzyl)-1,3-dioxo-2,3-dihydro-1H-isoindol-5-carbonyl]-amino}-ethyl)-4-morpholinium chloride]"
4,14.5,"O=C(NCCN1CCOCC1)c1ccc2c(c1)C(=O)N(c1ccc(F)cc1)C2=O [Compound 23, 4-(2-{[2-(4-fluoro-phenyl)-1,3-dioxo-2,3-dihydro-1H-isoindol-5-carbonyl]-amino}-ethyl)-4-morpholinium chloride]"
5,21.4,"O=C(NCCCN1CCOCC1)c1ccc2c(c1)C(=O)N(c1ccc(F)cc1)C2=O [Compound 24, 4-(3-{[2-(4-fluoro-phenyl)-1,3-dioxo-2,3-dihydro-1H-isoindol-5-carbonyl]-amino}-propyl)-4-morpholinium chloride]"
6,39.4,"Cc1ccc(N2C(=O)c3ccc(C(=O)NCCN4CCCCC4)cc3C2=O)cc1 [Compound 39, 1-{2-[(1,3-dioxo-2-p-tolyl-2,3-dihydro-1H-isoindol-5-carbonyl)-amino]-ethyl}-piperidinium chloride]"
7,42.5,"O=C(NCCN1CCOCC1)c1ccc2c(c1)C(=O)N(Cc1ccccc1)C2=O [Compound 53, 4-{2-[(2-benzyl-1,3-dioxo-2,3-dihydro-1H-isoindol-5-carbonyl)-amino]-ethyl}-4-morpholinium chloride]"
8,22.7,"O=C(NCCN1CCOCC1)c1ccc2c(c1)C(=O)N(c1ccccc1)C2=O [Compound 5, 4-{2-[(1,3-dioxo-2-phenyl-2,3-dihydro-1H-isoindol-5-carbonyl)-amino]-ethyl}-4-morpholinium chloride]"
9,64.5,"Cc1cccc(N2C(=O)c3ccc(C(=O)NCCN4CCCCC4)cc3C2=O)c1 [Compound 33, 1-{2-[(1,3-dioxo-2-m-tolyl-2,3-dihydro-1H-isoindol-5-carbonyl)-amino]-ethyl}-piperidinium chloride]"
10,38.7,"O=C(NCCCN1CCCC1)c1ccc2c(c1)C(=O)N(c1ccccc1)C2=O [Compound 4, 1-{3-[(1,3-dioxo-2-phenyl-2,3-dihydro-1H-isoindol-5-carbonyl)-amino]-propyl}-pyrrolidinium chloride]"

# More lines, now with the values behind:
row,SMILES,inhibition at 100 µM [%]
1,"COc1ccc(CN2C(=O)c3ccc(C(=O)NCCCN4CCCC4)cc3C2=O)cc1 [Compound 126, 1-(3-{[2-(4-methoxy-benzyl)-1,3-dioxo-2,3-dihydro-1H-isoindol-5-carbonyl]-amino}-propyl)-pyrrolidinium chloride]",73.8
2,"COc1ccc(CN2C(=O)c3ccc(C(=O)NCCCN4CCOCC4)cc3C2=O)cc1 [Compound 128, 4-(3-{[2-(4-methoxy-benzyl)-1,3-dioxo-2,3-dihydro-1H-isoindol-5-carbonyl]-amino}-propyl)-4-morpholinium chloride]",52.9
3,"COc1ccc(CN2C(=O)c3ccc(C(=O)NCCN4CCCC4)cc3C2=O)cc1 [Compound 125, 1-(2-{[2-(4-methoxy-benzyl)-1,3-dioxo-2,3-dihydro-1H-isoindol-5-carbonyl]-amino}-ethyl)-pyrrolidinium chloride]",65.2
4,"CC1CCCCN1CCCNC(=O)c1ccc2c(c1)C(=O)N(Cc1ccccc1F)C2=O (stereo not shown) [Compound 56, 1-(3-{[2-(2-fluoro-benzyl)-1,3-dioxo-2,3-dihydro-1H-isoindol-5-carbonyl]-amino}-propyl)-2-methyl-piperidinium chloride]",78.8
5,"O=C(NCCN1CCCCC1)c1ccc2c(c1)C(=O)N(Cc1ccc(F)cc1)C2=O [Compound 68, 1-(2-{[2-(4-fluoro-benzyl)-1,3-dioxo-2,3-dihydro-1H-isoindol-5-carbonyl]-amino}-ethyl)-piperidinium chloride]",78.2
6,"O=C(NCCCN1CCCC1)c1ccc2c(c1)C(=O)N(Cc1ccccc1F)C2=O [Compound 58, 1-(3-{[2-(2-fluoro-benzyl)-1,3-dioxo-2,3-dihydro-1H-isoindol-5-carbonyl]-amino}-propyl)-pyrrolidinium chloride]",70.6
7,"COc1ccc(CN2C(=O)c3ccc(C(=O)NCCN4CCCCC4)cc3C2=O)cc1 [Compound 123, 1-(2-{[2-(4-methoxy-benzyl)-1,3-dioxo-2,3-dihydro-1H isoindol-5-carbonyl]-amino}-ethyl)-piperidinium chloride]",64.3
8,"COc1ccccc1CN1C(=O)c2ccc(C(=O)NCCCN3CCCCC3C)cc2C1=O (stereo not shown) [Compound 112, 1-(3-{[2-(2-methoxy-benzyl)-1,3-dioxo-2,3-dihydro-1H-isoindol-5-carbonyl]-amino}-propyl)-2-methyl-piperidinium chloride]",75.1
9,"O=C(NCCN1CCCCC1)c1ccc2c(c1)C(=O)N(Cc1ccccc1F)C2=O [Compound 55, 1-(2-{[2-(2-fluoro-benzyl)-1,3-dioxo-2,3-dihydro-1H-isoindol-5-carbonyl]-amino}-ethyl)-piperidinium chloride]",79.9
10,"O=C(NCCCN1CCCC1)c1ccc2c(c1)C(=O)N(c1ccc(F)cc1)C2=O [Compound 22, 1-(3-{[2-(4-fluoro-phenyl)-1,3-dioxo-2,3-dihydro-1H-isoindol-5-carbonyl]-amino}-propyl)-pyrrolidinium chloride]",19.3
